Results: patent publication US8461183B2, “PPAR agonist compounds, preparation and uses” (Genfit, priority 2008, dated 2013)

Experiments:
Format in all cases: cell-based
[1] = molecular target: T1, hPPARα (Homo sapiens, UniProt Q07869); experiment: Gal4-hPPARα chimera transactivation (luciferase) in COS-7 cells; conditions: COS-7 cells, Gal4-hPPARα, 24 hours; for EC50: luciferase, read-out: PPARα EC50; for Emax: relative to maximum activation obtained with fenofibric acid, read-out: PPARα TOP % (maximum activation)
T1 construct: corresponding to the DEF domains (structural elements of the promoter of the PPARs: D=hinge, EF=ligand fixation domain and AF2 fixation site); expressed in transfected cells; host or cells: COS-7 (monkey kidney fibroblasts)
T1 sequence (Q07869 239-466 limits assumed): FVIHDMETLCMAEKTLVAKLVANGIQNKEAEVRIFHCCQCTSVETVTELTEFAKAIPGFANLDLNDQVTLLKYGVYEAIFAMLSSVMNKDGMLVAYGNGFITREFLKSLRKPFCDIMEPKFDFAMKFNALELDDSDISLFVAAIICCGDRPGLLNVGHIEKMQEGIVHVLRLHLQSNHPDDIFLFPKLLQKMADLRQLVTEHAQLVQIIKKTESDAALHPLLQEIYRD
Protocol: (§1) Activation of PPARs is evaluated in vitro on a line of monkey kidney fibroblasts (COS-7) by measuring the transcriptional activity of chimeras consisting of the DNA binding domain of Gal4 transcription factor of yeast and of the ligand binding domain of the various PPARs of human origin (hPPAR).
(§2) The COS-7 cells are from ATCC and are cultivated in DMEM medium supplemented with 10% (vol/vol) of fetal calf serum, 1% of penicillin/streptomycin (Biochrom, AG), 1% of amino acids (Gibco) and 1% of sodium pyruvate (Gibco). The cells are incubated at 37° C. in a humid atmosphere containing 5% CO2.
(§3) The plasmids Gal4(RE)_TkpGL3, pGal4-hPPARα, pGal4-hPPARγ, pGal4-hPPARδ and pGal4-φ are described in the literature (Raspe E et al., 1999). The constructs pGal4-hPPARα, pGal4-hPPARγ and pGal4-hPPARδ were obtained by cloning, into the pGal4-φ vector, DNA fragments amplified by PCR corresponding to the DEF domains (structural elements of the promoter of the PPARs: D=hinge, EF=ligand fixation domain and AF2 fixation site) of the human nuclear receptors PPAα, PPARγ and PPARδ.
(§4) The adherent COS-7 cells are transfected with 40 μg of DNA per 225 cm^2 flask, with a pGal4-hPPAR/Gal4(RE)_TkpGL3 ratio of 1/10, in the presence of 10% of fetal calf serum. The cells are then detached and seeded in the absence of serum in 384-well plates (2×10^4 cells/well) then incubated for 4 hours at 37° C. The compounds are then diluted in a 96-well plate and then transferred to the 384-well plate. Activation with the test compounds is effected for a further 24 hours at 37° C. in the presence of 1% of synthetic serum Ultroser™ (Biosepra). These last 2 stages are automated by means of a Genesis Freedom 200™ station (Tecan). At the end of the experiment, the cells are lysed and the luciferase activity is determined using the Steady-Lite™ HTS (Perkin Elmer) according to the supplier's recommendations.
The test data are summarized in Table 8-1 below, which presents, for each compound, the values of maximum activation (TOP %) and the EC50 values measured for each isoform of PPAR. The values of maximum activation are expressed in percentages relative to the maximum activations obtained with reference agonists: fenofibric acid for PPARα, rosiglitazone for PPARγ and 2-methyl-4-((4-methyl-2-(4-trifluoromethylphenyl)-1,3-thiazol-5-yl)-methylsulfanyl)phenoxyacetic acid (also called GW501516) for PPARδ.

[2] = molecular target: T2, hPPARδ (Homo sapiens, UniProt Q03181); experiment: Gal4-hPPARδ chimera transactivation (luciferase) in COS-7 cells; conditions: COS-7 cells, Gal4-hPPARδ, 24 hours; for EC50: luciferase, read-out: PPARδ EC50; for Emax: relative to maximum activation obtained with GW501516, read-out: PPARδ TOP % (maximum activation)
T2 construct: corresponding to the DEF domains (structural elements of the promoter of the PPARs: D=hinge, EF=ligand fixation domain and AF2 fixation site); expressed in transfected cells; host or cells: COS-7 (monkey kidney fibroblasts)
T2 sequence (Q03181 211-439 limits assumed): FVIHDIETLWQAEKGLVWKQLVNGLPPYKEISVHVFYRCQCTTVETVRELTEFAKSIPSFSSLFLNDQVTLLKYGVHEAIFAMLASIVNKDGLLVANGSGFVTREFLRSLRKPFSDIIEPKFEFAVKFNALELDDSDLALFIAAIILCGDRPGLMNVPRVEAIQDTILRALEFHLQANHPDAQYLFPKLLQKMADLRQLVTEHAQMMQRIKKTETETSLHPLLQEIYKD
Protocol: as §1, §2, §3, §4
(§5) The test data are summarized in Table 8-1 below, which presents, for each compound, the values of maximum activation (TOP %) and the EC50 values measured for each isoform of PPAR.

[3] = molecular target: T3, hPPARγ (Homo sapiens, UniProt P37231); experiment: Gal4-hPPARγ chimera transactivation (luciferase) in COS-7 cells; conditions: 24 hours; for EC50: luciferase, read-out: PPARγ EC50; for Emax: relative to maximum activation obtained with rosiglitazone, read-out: PPARγ TOP % (maximum activation)
T3 construct: corresponding to the DEF domains (structural elements of the promoter of the PPARs: D=hinge, EF=ligand fixation domain and AF2 fixation site); expressed in transfected cells; host or cells: COS-7 (monkey kidney fibroblasts)
T3 sequence (P37231 238-503 limits assumed): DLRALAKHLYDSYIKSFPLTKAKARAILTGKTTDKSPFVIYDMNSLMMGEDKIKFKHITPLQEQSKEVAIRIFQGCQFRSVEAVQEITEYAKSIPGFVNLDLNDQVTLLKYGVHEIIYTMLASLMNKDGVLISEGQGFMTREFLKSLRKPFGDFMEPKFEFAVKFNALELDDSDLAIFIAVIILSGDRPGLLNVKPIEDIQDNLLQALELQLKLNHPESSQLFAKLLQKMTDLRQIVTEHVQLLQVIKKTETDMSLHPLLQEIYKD
Protocol: as §1, §2, §3, §4, §5

Row | EC50 [1] [µM] | Emax [1] [%] | EC50 [2] [nM] | Emax [2] [%] | EC50 [3] [µM] | Emax [3] [%] | SMILES
1 | 0.175 | 52.2 | 1390 | 95.3 | 1.94 | 100 | COc1nc(-c2ccc(-c3ccccc3)cc2)ccc1CNc1ccc(CCC(=O)O)cc1 [Cpd 39, 3-(4-(((2-methoxy-6-(parabiphenyl)pyridin-3-yl)methyl)amino)phenyl)-propanoic acid]
2 | 1.42 | 67.6 | 526 | 108 | 2.33 | 80.4 | CCC(Nc1ccc(CCC(=O)O)cc1)c1ccc(-c2ccccc2)nc1OC (stereo not drawn) [Cpd 34, 3-(4-(1-((2-methoxy-6-phenylpyridin-3-yl)propyl)amino)phenyl)propanoic acid]
3 | 7.36 | 35.9 | 17000 | 107 | 27.2 | 72.1 | COc1ncc(-c2ccccc2)cc1CNc1ccc(CCC(=O)O)cc1 [Cpd 41, 3-(4-(((2-methoxy-5-phenylpyridin-3-yl)methyl)amino)phenyl)propanoic acid]
4 | 0.044 | 65.3 | 501 | 85.4 | 2.84 | 75.6 | COc1nc(-c2ccc(C(F)(F)F)cc2)ccc1CNc1ccc(SCC(=O)O)cc1 [Cpd 23, 2-(4-(((2-methoxy-6-(4-(trifluoromethyl)phenyl)pyridin-3-yl)methyl)amino)-phenylthio)ethanoic acid]
5 | 5.43 | 30.3 | 489 | 70.7 | 11.8 | 17.3 | CC(C)(C)Oc1nc(-c2ccccc2)ccc1COc1ccc(OC(C)(C)C(=O)O)cc1 [Cpd 6, 2-(4-((2-tert-butyloxy-6-phenylpyridin-3-yl)methoxy)phenoxy)-2-methyl-propanoic acid]
6 | 0.389 | 67.5 | 6170 | 71 | 3.72 | 57.3 | COc1nc(-c2ccccc2)ccc1CNc1ccc(OC(C)C(=O)O)cc1 (stereo not drawn) [Cpd 5, 2-(4-(((2-methoxy-6-phenylpyridin-3yl)methyl)amino)phenoxy)propanoic acid]
7 | 7.92 | 21.9 | 2110 | 72.4 | 12.2 | 13.4 | CC(C)(C)Oc1nc(-c2ccccc2)ccc1CNc1ccc(OCC(=O)O)cc1 [Cpd 8]
8 | 0.771 | 46.8 | 770 | 103 | 1.92 | 63.7 | COc1ncc(-c2ccc3ccccc3c2)cc1CNc1ccc(CCC(=O)O)cc1 [Cpd 50, 3-(4-(((2-methoxy-5-(naphthalen-2-yl)pyridin-3-yl)methyl)amino)phenyl)-propanoic acid]
9 | 1.48 | 70.4 | 22800 | 3.59 | 2.51 | 66.6 | COc1nc(-c2ccccc2)ccc1CNc1ccc(SC(C(=O)O)c2ccccc2)cc1 (stereo not drawn) [Cpd 32, 2-(4-(((2-methoxy-6-phenylpyridin-3-yl)methyl)amino)phenylthio)-2-phenyl-acid]
10 | 3.85 | 59.3 | 10100 | 85.6 | 8.43 | 57.7 | COc1nc(-c2ccccc2)c(Br)cc1CNc1ccc(SCC(=O)O)cc1 [Cpd 29, 2-(4-(((2-methoxy-5-bromo-6-phenylpyridin-3-yl)methyl)amino)phenylthio)-ethanoic acid]
11 | 0.195 | 78.1 | 2360 | 84.2 | 2.64 | 44.9 | COc1nc(-c2ccccc2)ccc1CNc1ccc(OC(C)(C)C(=O)O)cc1 [Cpd 12, 2-(4-(((2-methoxy-6-phenylpyridin-3-yl)methyl)amino)phenoxy)-2-methyl-propanoic acid]
12 | 5.66 | 16.5 | 3040 | 86.5 | 4.36 | 65.8 | COc1nc(-c2ccccc2)ccc1CNc1ccc(C(CC(=O)O)c2ccccc2)cc1 (stereo not drawn) [Cpd 42, 3-(4-((2(-methoxy-6-phenylpyridin-3-yl)methyl)amino)phenyl)-3-phenyl-propanoic acid]
13 | 4.55 | 49.9 | 10500 | 74.5 | 12.4 | 65 | COc1nc(-c2ccccc2)ccc1CN(C)c1ccc(CCC(=O)O)cc1 [Cpd 33, 3-(4-(((2-methoxy-6-phenylpyridin-3-yl)methyl)(methyl)amino)phenyl)-propanoic acid]
14 | 1.44 | 44.9 | 1510 | 77.9 | 0.402 | 85.6 | COc1cc(NCc2ccc(-c3ccccc3)nc2OC)ccc1CCC(=O)O [Cpd 43, 3-(2-methoxy-4-(((2-methoxy-6-phenylpyridin-3-yl)methyl)amino)-phenyl)-propanoic acid]
15 | 3.24 | 78.2 | 1520 | 96.5 | 12.3 | 46.6 | CCCCCCOc1nc(-c2ccccc2)ccc1COc1ccc(OCC(=O)O)cc1 [Cpd 15, 2-(4-((2-hexyloxy-6-phenylpyridin-3-yl)methoxy)phenoxy)ethanoic acid]
16 | 4.5 | 33.7 | 464 | 74.2 | 6.09 | 23.9 | CC(C)(C)Oc1nc(-c2ccccc2)ccc1CNc1ccc(OC(C)(C)C(=O)O)cc1 [Cpd 9, 2-(4-(((2-tert-butyloxy-6-phenylpyridin-3-yl)methyl)amino)phenoxy)-2-methyl-propanoic acid]
17 | 10.8 | 36.2 | 6780 | 64.5 | 7.6 | 45.4 | CCSc1nc(-c2ccccc2)ccc1CNc1ccc(CCC(=O)O)cc1 [Cpd 38, 3-(4-(((2-(ethylthio)-6-phenylpyridin-3-yl)methyl)amino)phenyl)propanoic acid]
18 | 6.96 | 53.9 | 6380 | 71 | 8.29 | 38.3 | O=C(O)COc1ccc(OCc2ccc(-c3ccccc3)nc2Sc2ccccc2)cc1 [Cpd 25, 2-(4-((2-phenylthio-6-(phenyl)pyridin-3-yl)methoxy)phenoxy)ethanoic acid]
